Results reported in patent US8871753B2, “Macrocyclic compounds and their use as kinase inhibitors” (Incyte Corporation, priority 2008, dated 2014).
Counter-ions that a name gives are not always drawn. Like-named read-outs stand apart in the source and are kept apart here.

Experiments:
Type in all cases: biochemical
TYK2 = TYK2 (Homo sapiens, UniProt P29597); assay: TYK2 kinase inhibition (Table A1)
[1] = target: T1, human JAK3 (a.a. 781-1124) (Homo sapiens, UniProt P52333); assay: In vitro JAK kinase assay (HTRF, phosphorylation of a biotinylated peptide), JAK3
T1 construct: JAK3 (a.a. 781-1124); His tag (N); made in house; host or cells: insect cells (baculovirus)
In short: (§1)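 Kinase reactions ran at room temperature for 1 h with ATP matched per isoform (JAK1 90 μM, JAK2 30 μM, JAK3 3 μM). After an EDTA stop, the phosphorylated biotin-peptide was read by HTRF using Eu-Py20 and SA-APC after 40 min binding.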

[2] = target: T2, human JAK2 (a.a. 828-1132) (Homo sapiens, UniProt O60674); assay: In vitro JAK kinase assay (HTRF, phosphorylation of a biotinylated peptide), JAK2
T2 construct: JAK2 (a.a. 828-1132); His tag (N); made in house; host or cells: insect cells (baculovirus)
In short: as §1

[3] = target: T3, human JAK1 (a.a. 837-1142) (Homo sapiens, UniProt P23458); assay: In vitro JAK kinase assay (HTRF, phosphorylation of a biotinylated peptide), JAK1; conditions: read-out: JAK1 IC50
T3 construct: human JAK1 (a.a. 837-1142); His tag (N); made in house; host or cells: insect cells (baculovirus)
In short: as §1

[4] = target: T4, Recombinant Human Anaplastic Lymphoma Kinase (Homo sapiens, UniProt Q9UM73); assay: ALK HTRF kinase assay
T4 construct: purchased Invitrogen, Carlsbad, Calif
In short: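 Recombinant human ALK phosphorylated a biotinylated synthetic peptide. Phosphotyrosine was detected by TR-FRET between a Eu-labelled anti-phosphotyrosine antibody and streptavidin-allophycocyanin. IC50 values came from fitting signal against inhibitor concentration to a four-parameter logistic equation with variable Hill slope.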

[5] = method AA1 (3 μM ATP) or AA2 (1000 μM ATP), not stated per value
[6] = method AA1 (30 μM ATP) or AA2 (1000 μM ATP), not stated per value
[7] = method AA1 (90 μM ATP) or AA2 (1000 μM ATP), not stated per value
[8] = compound at 500 nM or 1 mM, 90 μM ATP
[9] = compound at a concentration of 500 nM or 1 mM (not specified), cells shown as percentage
[10] = Table B1, cells without percent sign

T2 sequence (O60674 828-1132): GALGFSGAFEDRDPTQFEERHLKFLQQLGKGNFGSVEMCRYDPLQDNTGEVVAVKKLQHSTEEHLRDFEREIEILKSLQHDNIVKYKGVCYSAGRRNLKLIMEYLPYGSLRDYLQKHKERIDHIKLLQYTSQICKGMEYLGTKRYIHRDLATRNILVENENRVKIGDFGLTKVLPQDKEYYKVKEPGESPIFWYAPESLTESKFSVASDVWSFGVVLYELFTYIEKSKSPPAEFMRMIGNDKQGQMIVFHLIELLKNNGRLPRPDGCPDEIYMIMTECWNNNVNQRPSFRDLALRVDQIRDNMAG
Chain of TYK2 (P29597 whole entry): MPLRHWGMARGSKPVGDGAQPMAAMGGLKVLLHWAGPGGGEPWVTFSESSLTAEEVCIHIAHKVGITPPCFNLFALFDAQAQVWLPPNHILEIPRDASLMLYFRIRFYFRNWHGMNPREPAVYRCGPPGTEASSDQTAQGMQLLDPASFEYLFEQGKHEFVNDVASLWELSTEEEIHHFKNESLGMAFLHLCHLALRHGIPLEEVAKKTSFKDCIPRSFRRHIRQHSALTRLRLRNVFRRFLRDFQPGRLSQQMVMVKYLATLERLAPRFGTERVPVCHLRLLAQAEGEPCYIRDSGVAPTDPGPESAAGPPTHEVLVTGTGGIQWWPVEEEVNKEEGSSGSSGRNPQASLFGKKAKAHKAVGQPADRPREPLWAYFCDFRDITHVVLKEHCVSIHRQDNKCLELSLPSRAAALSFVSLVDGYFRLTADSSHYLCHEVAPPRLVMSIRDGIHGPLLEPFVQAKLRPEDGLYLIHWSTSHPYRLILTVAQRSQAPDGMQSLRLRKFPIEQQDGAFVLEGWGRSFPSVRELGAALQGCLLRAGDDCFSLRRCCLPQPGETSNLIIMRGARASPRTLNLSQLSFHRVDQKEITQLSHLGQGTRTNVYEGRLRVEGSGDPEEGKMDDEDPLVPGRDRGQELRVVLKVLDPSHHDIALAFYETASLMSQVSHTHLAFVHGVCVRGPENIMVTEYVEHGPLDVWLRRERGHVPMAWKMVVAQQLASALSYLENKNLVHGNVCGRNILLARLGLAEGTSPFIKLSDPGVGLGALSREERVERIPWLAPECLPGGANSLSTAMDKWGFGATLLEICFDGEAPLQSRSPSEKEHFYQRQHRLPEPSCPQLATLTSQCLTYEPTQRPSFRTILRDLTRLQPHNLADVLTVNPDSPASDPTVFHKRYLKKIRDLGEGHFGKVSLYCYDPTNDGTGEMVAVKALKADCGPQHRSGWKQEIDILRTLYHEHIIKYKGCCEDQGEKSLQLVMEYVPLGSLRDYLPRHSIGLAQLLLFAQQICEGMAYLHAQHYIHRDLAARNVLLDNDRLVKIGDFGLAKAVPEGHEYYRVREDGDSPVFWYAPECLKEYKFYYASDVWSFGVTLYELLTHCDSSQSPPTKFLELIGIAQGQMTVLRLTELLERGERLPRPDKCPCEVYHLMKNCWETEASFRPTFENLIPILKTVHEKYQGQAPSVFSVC
T3 sequence (P23458 849-1154): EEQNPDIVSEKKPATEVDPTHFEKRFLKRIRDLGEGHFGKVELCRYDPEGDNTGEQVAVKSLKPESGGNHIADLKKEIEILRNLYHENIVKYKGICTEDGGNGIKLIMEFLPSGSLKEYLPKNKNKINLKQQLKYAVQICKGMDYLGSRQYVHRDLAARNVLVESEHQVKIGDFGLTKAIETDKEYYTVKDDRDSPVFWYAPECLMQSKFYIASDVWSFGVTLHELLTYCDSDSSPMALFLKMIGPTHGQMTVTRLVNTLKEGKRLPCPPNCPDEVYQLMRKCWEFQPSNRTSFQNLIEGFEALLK
T1 sequence (P52333 781-1124): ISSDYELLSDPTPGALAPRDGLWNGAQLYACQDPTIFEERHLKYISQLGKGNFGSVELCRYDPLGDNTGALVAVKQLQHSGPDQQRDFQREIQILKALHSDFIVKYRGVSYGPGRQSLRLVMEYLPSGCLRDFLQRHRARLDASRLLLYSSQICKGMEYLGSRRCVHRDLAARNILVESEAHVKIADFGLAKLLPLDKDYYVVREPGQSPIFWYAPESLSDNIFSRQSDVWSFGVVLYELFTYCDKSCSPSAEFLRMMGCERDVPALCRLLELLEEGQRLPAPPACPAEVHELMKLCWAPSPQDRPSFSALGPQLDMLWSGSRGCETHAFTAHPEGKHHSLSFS
T4 sequence (Q9UM73 19-1620): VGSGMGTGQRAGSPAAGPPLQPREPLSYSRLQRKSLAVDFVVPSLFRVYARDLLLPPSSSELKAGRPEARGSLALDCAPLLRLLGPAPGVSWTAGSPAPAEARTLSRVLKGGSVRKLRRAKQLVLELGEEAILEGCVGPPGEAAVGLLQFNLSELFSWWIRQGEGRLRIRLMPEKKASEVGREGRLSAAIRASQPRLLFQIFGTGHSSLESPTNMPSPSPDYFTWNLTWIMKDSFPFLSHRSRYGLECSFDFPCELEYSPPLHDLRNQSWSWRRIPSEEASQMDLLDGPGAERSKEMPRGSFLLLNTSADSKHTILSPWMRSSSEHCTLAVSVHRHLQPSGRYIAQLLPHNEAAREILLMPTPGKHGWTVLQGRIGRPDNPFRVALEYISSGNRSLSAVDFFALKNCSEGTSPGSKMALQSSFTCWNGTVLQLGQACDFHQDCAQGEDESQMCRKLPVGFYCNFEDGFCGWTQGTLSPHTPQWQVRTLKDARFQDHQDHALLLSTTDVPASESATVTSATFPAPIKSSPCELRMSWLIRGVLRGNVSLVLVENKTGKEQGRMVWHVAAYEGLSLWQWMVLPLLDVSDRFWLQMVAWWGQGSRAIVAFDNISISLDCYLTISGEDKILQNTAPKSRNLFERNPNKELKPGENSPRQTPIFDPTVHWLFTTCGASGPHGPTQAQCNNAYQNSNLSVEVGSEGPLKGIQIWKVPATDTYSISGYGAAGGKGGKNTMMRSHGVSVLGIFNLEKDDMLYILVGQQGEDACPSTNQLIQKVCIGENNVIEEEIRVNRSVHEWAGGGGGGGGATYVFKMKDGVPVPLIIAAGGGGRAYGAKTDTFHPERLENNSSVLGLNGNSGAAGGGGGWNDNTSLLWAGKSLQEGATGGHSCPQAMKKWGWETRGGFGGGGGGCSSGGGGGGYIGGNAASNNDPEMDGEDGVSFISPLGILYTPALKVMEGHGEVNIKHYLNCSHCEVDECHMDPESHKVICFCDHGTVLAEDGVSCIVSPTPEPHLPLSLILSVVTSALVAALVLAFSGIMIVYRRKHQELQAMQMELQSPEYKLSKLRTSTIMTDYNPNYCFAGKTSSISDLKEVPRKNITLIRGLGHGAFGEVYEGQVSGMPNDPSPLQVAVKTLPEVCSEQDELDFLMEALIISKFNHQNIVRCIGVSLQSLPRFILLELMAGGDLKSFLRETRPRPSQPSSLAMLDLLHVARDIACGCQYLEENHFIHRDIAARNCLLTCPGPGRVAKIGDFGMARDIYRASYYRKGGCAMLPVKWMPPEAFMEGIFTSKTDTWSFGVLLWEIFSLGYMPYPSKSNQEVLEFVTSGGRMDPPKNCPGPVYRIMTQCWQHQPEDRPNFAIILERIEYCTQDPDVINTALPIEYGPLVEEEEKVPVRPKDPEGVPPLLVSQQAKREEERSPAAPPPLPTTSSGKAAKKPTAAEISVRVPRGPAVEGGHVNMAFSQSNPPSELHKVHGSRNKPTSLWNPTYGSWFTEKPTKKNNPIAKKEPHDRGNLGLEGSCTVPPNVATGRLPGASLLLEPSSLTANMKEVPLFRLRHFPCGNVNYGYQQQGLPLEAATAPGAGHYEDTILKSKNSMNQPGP

An IC50 (TYK2; Table D1) of 0.004 µM, an IC50 ([1]; Table D1) of 0.012 µM and an IC50 ([2]; Table D1) of 0.0007 µM were found for `Clc1cnc2nc1Nc1cccc(c1)OCCc1cc(cc(-c3ccc(N4CCNCC4)nc3)c1)N2` [Example D33, 6-Chloro-19-(6-piperazin-1-ylpyridin-3-yl)-14-oxa-2,4,8,23-tetraazatetracyclo[15.3.1.1(3,7).1(9,13)]tricosa-1(21),3(23),4,6,9(22),10,12,17,19-nonaene tris(trifluoroacetate)] in this work. For the same compound, the IC50 ([3]; Table D1) was 0.0018 µM and the IC50 ([4]; Table D1, 90 μM ATP) was 0.108 µM.
An IC50 (TYK2) of 0.0053 µM, an IC50 [1, 5] of 0.062 µM and an IC50 [2, 6] of 0.0044 µM were found for `CN(C)C(=O)N1CCC(CC(=O)Nc2ccc3cc2CCc2cccc(c2)Nc2ncc(Cl)c(n2)N3)CC1` [Example A80, 4-(2-{[6-Chloro-2,4,8,22-tetraazatetracyclo[14.3.1.1(3,7).1(9,13)]docosa-1(20),3(22),4,6,9(21),10,12,16,18-nonaen-12-yl]amino}-2-oxoethyl)-N,N-dimethylpiperidine-1-carboxamide trifluoroacetate] in this work. The IC50 [3, 7] was 0.0081 µM and the “ALK % of inhibition at a concentration of 500 nM or 1 mM” value (“ALK % of inhibition” below) [4, 8] was 21%.
An IC50 (TYK2; Table D1) of 0.045 µM, an IC50 ([1]; Table D1) of 0.084 µM and an IC50 ([2]; Table D1) of 0.043 µM were found for `Clc1cnc2nc1Nc1cccc(c1)CSCCc1cccc(c1)N2` [Example D32, 6-Chloro-15-thia-2,4,8,24-tetraazatetracyclo[16.3.1.1(3,7).1(9,13)]tetracosa-1(22),3(24),4,6,9(23),10,12,18,20-nonaene trifluoroacetate] in this work. The IC50 ([3]; Table D1) was 0.041 µM and the IC50 ([4]; Table D1, 90 μM ATP) was > 1 µM.
An IC50 (TYK2; Table B1) of 0.052 µM, an IC50 ([1]; Table B1) of 0.164 µM and an IC50 ([2]; Table B1) of 0.02 µM were found for `CCC(C)c1ccccc1NC(=O)Nc1ccc2cc1CCc1cccc(c1)Nc1ncc(Cl)c(n1)N2` (stereo not shown) [Example B126, N-(2-sec-Butylphenyl)-N′-[6-chloro-2,4,8,22-tetraazatetracyclo[14.3.1.1(3,7).1(9,13)]docosa-1(20),3(22),4,6,9(21),10,12,16,18-nonaen-12-yl]urea trifluoroacetate] in this work. The IC50 ([3]; Table B1) was 0.0089 µM and the “ALK % of inhibition” value [4, 9] was 6.1%.
With `O=C(Nc1ccccc1Cl)c1cc2cc(c1)Nc1nc(ncc1Cl)Nc1cccc(c1)CC2` [Example B14, 6-Chloro-N-(2-chlorophenyl)-2,4,8,22-tetraazatetracyclo[14.3.1.1(3,7).1(9,13)]docosa-1(20),3(22),4,6,9(21),10,12,16,18-nonaene-11-carboxamide trifluoroacetate] the IC50 (TYK2; Table B1) was > 1 µM, the IC50 ([1]; Table B1) was 0.314 µM and the IC50 ([2]; Table B1) was 0.119 µM. For the same compound, the IC50 ([3]; Table B1) was 0.232 µM and the IC50 [4, 10] was > 1 µM.
An IC50 (TYK2; Table B1) of 0.00027 µM, an IC50 ([1]; Table B1) of 0.0064 µM and an IC50 ([2]; Table B1) of 0.00011 µM were found for `O=S(=O)(Nc1ccc2cc1CCc1cccc(c1)Nc1ncc(Cl)c(n1)N2)c1ccccc1Cl` [Example B137, 2-Chloro-N-[6-chloro-2,4,8,22-tetraazatetracyclo[14.3.1.1(3,7).1(9,13)]docosa-1(20),3(22),4,6,9(21),10,12,16,18-nonaen-12-yl]benzenesulfonamide trifluoroacetate] in this work. The IC50 ([3]; Table B1) was 0.00042 µM and the IC50 [4, 10] was 0.58 µM.
An IC50 (TYK2) of 0.013 µM, an IC50 [1, 5] of 0.0026 µM and an IC50 [2, 6] of 0.0025 µM were found for `O=C(Nc1ccc2cc1CCc1cccc(c1)Nc1ncc(Cl)c(n1)N2)[C@@H]1CCN(C(=O)NC2CCCC2)C1` [Example A63, (3R)—N(3)-[6-Chloro-2,4,8,22-tetraazatetracyclo[14.3.1.1(3,7).1(9,13)]docosa-1(20),3(22),4,6,9(21),10,12,16,18-nonaen-12-yl]-N(1)-cyclopentylpyrrolidine-1,3-dicarboxamide trifluoroacetate] in this work. For the same compound, the IC50 [3, 7] was 0.009 µM and the “ALK % of inhibition” value [4, 8] was 29%.
An IC50 (TYK2; Table B1) of 0.017 µM, an IC50 ([1]; Table B1) of 0.039 µM and an IC50 ([2]; Table B1) of 0.0074 µM were found for `CC(C)(C)OC(=O)N1CC[C@H](NC(=O)Nc2ccc3cc2CCc2cccc(c2)Nc2ncc(Cl)c(n2)N3)C1` [Example B166, tert-Butyl (3S)-3-[({[6-chloro-2,4,8,22-tetraazatetracyclo[14.3.1.1(3,7).1(9,13)]docosa-1(20),3(22),4,6,9(21),10,12,16,18-nonaen-12-yl]amino}carbonyl)amino]pyrrolidine-1-carboxylate] in this work. The IC50 ([3]; Table B1) was 0.0036 µM and the “ALK % of inhibition” value [4, 9] was 15%.
